Laboratory results reported in the supplement of paper PMC10307832.

Experiments:
Assay in all cases: relative viability (nuclei count vs DMSO), 5 days (fraction); higher = more cells survive
A-427 = tested on: A-427
Summary of the method: (§1)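 A single step with final 0.05% Triton X-100, 1% formaldehyde and 1 ug/ml Hoechst fixed the cells and stained nuclei 5 days after treatment. Lung cancer cell lines in 1536-well plates had been treated by pin tool the day after seeding with one drug alone or a fixed anchor-drug dose plus five library-drug doses (not always all listed) in √10 steps, and nuclei were counted on 4× images. Relative viability is the ratio of nuclei in treated wells to nuclei in vehicle wells, taken as the median of duplicate plates.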

EPLC-272H = tested on: EPLC-272H
Summary of the method: as §1

HCC-15 = tested on: HCC-15
Summary of the method: as §1

LC-2-ad = tested on: LC-2-ad
Summary of the method: as §1

LK-2 = tested on: LK-2
Summary of the method: as §1

NCI-H1734 = tested on: NCI-H1734
Summary of the method: as §1

NCI-H1793 = tested on: NCI-H1793
Summary of the method: as §1

NCI-H1915 = tested on: NCI-H1915
Summary of the method: as §1

NCI-H1944 = tested on: NCI-H1944
Summary of the method: as §1

NCI-H2009 = tested on: NCI-H2009
Summary of the method: as §1

NCI-H2023 = tested on: NCI-H2023
Summary of the method: as §1

NCI-H2342 = tested on: NCI-H2342
Summary of the method: as §1

NCI-H2347 = tested on: NCI-H2347
Summary of the method: as §1

NCI-H322M = tested on: NCI-H322M
Summary of the method: as §1

NCI-H358 = tested on: NCI-H358
Summary of the method: as §1

NCI-H441 = tested on: NCI-H441
Summary of the method: as §1

NCI-H522 = tested on: NCI-H522
Summary of the method: as §1

NCI-H647 = tested on: NCI-H647
Summary of the method: as §1

NCI-H838 = tested on: NCI-H838
Summary of the method: as §1

RERF-LC-KJ = tested on: RERF-LC-KJ
Summary of the method: as §1

SW 1573 = tested on: SW 1573
Summary of the method: as §1

UMC-11 = tested on: UMC-11
Summary of the method: as §1

For `Cc1csc(=NC2CCCCC2)n1/N=C/c1ccc(O)c(O)c1O` [MIM1] + Nc1nc2[nH]cc(CCc3ccc(C(=O)N[C@@H](CCC(=O)O)C(=O)O)cc3)c2c(=O)[nH]1 [Pemetrexed] (partner 0.2 µM), the relative viability (A-427; first compound 0.2 µM) was 1.02, the relative viability (A-427; first compound 0.6325 µM) was 0.947 and the relative viability (A-427; first compound 2 µM) was 0.989. It also gave a relative viability (A-427; first compound 6.325 µM) of 0.901, a relative viability (A-427; first compound 20 µM) of 0.343 and a relative viability (EPLC-272H; first compound 0.2 µM) of 0.328. The relative viability (EPLC-272H; first compound 0.6325 µM) was 0.372, the relative viability (EPLC-272H; first compound 2 µM) was 0.27 and the relative viability (EPLC-272H; first compound 6.325 µM) was 0.157. It also gave a relative viability (EPLC-272H; first compound 20 µM) of 0.166, a relative viability (HCC-15; first compound 0.2 µM) of 0.217 and a relative viability (HCC-15; first compound 0.6325 µM) of 0.225. It also gave a relative viability (HCC-15; first compound 2 µM) of 0.225, a relative viability (HCC-15; first compound 6.325 µM) of 0.239 and a relative viability (HCC-15; first compound 20 µM) of 0.162. The relative viability (LC-2-ad; first compound 0.2 µM) was 0.293, the relative viability (LC-2-ad; first compound 0.6325 µM) was 0.292 and the relative viability (LC-2-ad; first compound 2 µM) was 0.287. The relative viability (LC-2-ad; first compound 6.325 µM) was 0.268, the relative viability (LC-2-ad; first compound 20 µM) was 0.232 and the relative viability (LK-2; first compound 0.2 µM) was 0.276. For the same compound, the relative viability (LK-2; first compound 0.6325 µM) was 0.298, the relative viability (LK-2; first compound 2 µM) was 0.197 and the relative viability (LK-2; first compound 6.325 µM) was 0.272. The relative viability (LK-2; first compound 20 µM) was 0.218, the relative viability (NCI-H1734; first compound 0.2 µM) was 0.424 and the relative viability (NCI-H1734; first compound 0.6325 µM) was 0.448. For the same compound, the relative viability (NCI-H1734; first compound 2 µM) was 0.478, the relative viability (NCI-H1734; first compound 6.325 µM) was 0.412 and the relative viability (NCI-H1734; first compound 20 µM) was 0.179. It also gave a relative viability (NCI-H1793; first compound 0.2 µM) of 0.937, a relative viability (NCI-H1793; first compound 2 µM) of 1.13 and a relative viability (NCI-H1793; first compound 6.325 µM) of 0.848. It also gave a relative viability (NCI-H1793; first compound 20 µM) of 0.936, a relative viability (NCI-H1915; first compound 0.2 µM) of 0.501 and a relative viability (NCI-H1915; first compound 0.6325 µM) of 0.42. The relative viability (NCI-H1915; first compound 2 µM) was 0.487, the relative viability (NCI-H1915; first compound 6.325 µM) was 0.329 and the relative viability (NCI-H1915; first compound 20 µM) was 0.335. The relative viability (NCI-H1944; first compound 0.2 µM) was 0.586, the relative viability (NCI-H1944; first compound 0.6325 µM) was 0.613 and the relative viability (NCI-H1944; first compound 2 µM) was 0.478. The relative viability (NCI-H1944; first compound 6.325 µM) was 0.381, the relative viability (NCI-H1944; first compound 20 µM) was 0.233 and the relative viability (NCI-H2009; first compound 0.2 µM) was 1.03. The relative viability (NCI-H2009; first compound 0.6325 µM) was 1.05, the relative viability (NCI-H2009; first compound 2 µM) was 1.09 and the relative viability (NCI-H2009; first compound 6.325 µM) was 0.916. It also gave a relative viability (NCI-H2009; first compound 20 µM) of 0.884, a relative viability (NCI-H2023; first compound 0.2 µM) of 0.235 and a relative viability (NCI-H2023; first compound 0.6325 µM) of 0.337. For the same compound, the relative viability (NCI-H2023; first compound 2 µM) was 0.219, the relative viability (NCI-H2023; first compound 6.325 µM) was 0.098 and the relative viability (NCI-H2023; first compound 20 µM) was 0.0763. For the same compound, the relative viability (NCI-H2342; first compound 0.2 µM) was 0.719, the relative viability (NCI-H2342; first compound 0.6325 µM) was 0.768 and the relative viability (NCI-H2342; first compound 2 µM) was 0.75. It also gave a relative viability (NCI-H2342; first compound 6.325 µM) of 0.751, a relative viability (NCI-H2342; first compound 20 µM) of 0.757 and a relative viability (NCI-H2347; first compound 0.2 µM) of 0.465. It also gave a relative viability (NCI-H2347; first compound 0.6325 µM) of 0.422, a relative viability (NCI-H2347; first compound 2 µM) of 0.415 and a relative viability (NCI-H2347; first compound 6.325 µM) of 0.421. For the same compound, the relative viability (NCI-H2347; first compound 20 µM) was 0.399, the relative viability (NCI-H322M; first compound 0.2 µM) was 0.614 and the relative viability (NCI-H322M; first compound 0.6325 µM) was 0.58. The relative viability (NCI-H322M; first compound 2 µM) was 0.558, the relative viability (NCI-H322M; first compound 6.325 µM) was 0.557 and the relative viability (NCI-H322M; first compound 20 µM) was 0.543. The relative viability (NCI-H358; first compound 0.2 µM) was 0.181, the relative viability (NCI-H358; first compound 0.6325 µM) was 0.17 and the relative viability (NCI-H358; first compound 2 µM) was 0.182. The relative viability (NCI-H358; first compound 6.325 µM) was 0.152, the relative viability (NCI-H358; first compound 20 µM) was 0.144 and the relative viability (NCI-H441; first compound 0.2 µM) was 0.259. It also gave a relative viability (NCI-H441; first compound 0.6325 µM) of 0.27, a relative viability (NCI-H441; first compound 2 µM) of 0.256 and a relative viability (NCI-H441; first compound 6.325 µM) of 0.232. For the same compound, the relative viability (NCI-H441; first compound 20 µM) was 0.159, the relative viability (NCI-H522; first compound 0.2 µM) was 1.09 and the relative viability (NCI-H522; first compound 0.6325 µM) was 1.31. The relative viability (NCI-H522; first compound 2 µM) was 0.951, the relative viability (NCI-H522; first compound 6.325 µM) was 1.01 and the relative viability (NCI-H522; first compound 20 µM) was 0.481. The relative viability (NCI-H647; first compound 0.2 µM) was 0.187, the relative viability (NCI-H647; first compound 0.6325 µM) was 0.186 and the relative viability (NCI-H647; first compound 2 µM) was 0.178. The relative viability (NCI-H647; first compound 6.325 µM) was 0.162, the relative viability (NCI-H647; first compound 20 µM) was 0.117 and the relative viability (NCI-H838; first compound 0.2 µM) was 0.244. The relative viability (NCI-H838; first compound 0.6325 µM) was 0.376, the relative viability (NCI-H838; first compound 2 µM) was 0.243 and the relative viability (NCI-H838; first compound 6.325 µM) was 0.269. For the same compound, the relative viability (NCI-H838; first compound 20 µM) was 0.226, the relative viability (RERF-LC-KJ; first compound 0.2 µM) was 0.47 and the relative viability (RERF-LC-KJ; first compound 0.6325 µM) was 0.466. The relative viability (RERF-LC-KJ; first compound 2 µM) was 0.369, the relative viability (RERF-LC-KJ; first compound 6.325 µM) was 0.361 and the relative viability (RERF-LC-KJ; first compound 20 µM) was 0.165. It also gave a relative viability (SW 1573; first compound 0.2 µM) of 0.851, a relative viability (SW 1573; first compound 0.6325 µM) of 0.93 and a relative viability (SW 1573; first compound 2 µM) of 0.877. For the same compound, the relative viability (SW 1573; first compound 6.325 µM) was 0.791, the relative viability (SW 1573; first compound 20 µM) was 0.18 and the relative viability (UMC-11; first compound 0.2 µM) was 0.721. It also gave a relative viability (UMC-11; first compound 0.6325 µM) of 0.848, a relative viability (UMC-11; first compound 2 µM) of 0.815 and a relative viability (UMC-11; first compound 6.325 µM) of 0.739. For the same compound, the relative viability (UMC-11; first compound 20 µM) was 0.369.
